The structures appear in SMILES notation.

The text below walks through data of patent US8497281B2, “Aryl- and heteroarylcarbonyl derivatives of hexahydroindenopyridine and octahydrobenzoquinoline” (Vitae Pharmaceuticals, Inc., priority 2009, dated 2013).

The first data set is described as follows: Metabolic stability in pooled liver microsomes. Conditions: human liver microsomes, 37° C., test compound 1 μM, microsomal protein 0.5 mg/mL, NADPH 1 mM. The class given is in vitro ADME, human. On the procedure: The metabolic degradation of the test compound is assayed at 37° C. with pooled liver microsomes from various species. The final incubation volume of 100 μl per time point contains TRIS buffer pH 7.6 at room temperature (0.1 M), magnesium chloride (5 mM), microsomal protein (0.5 mg/mL) and the test compound at a final concentration of 1 μM. Following a short preincubation period at 37° C., the reactions are initiated by addition of beta-nicotinamide adenine dinucleotide phosphate, reduced form (NADPH, 1 mM), and terminated by transferring an aliquot into solvent after different time points. After centrifugation (10000 g, 5 min), an aliquot of the supernatant is assayed by LC-MS/MS for the amount of parent compound. The half-life is determined by the slope of the semi-logarithmic plot of the concentration-time profile.
With `O=C(c1ccc2[nH]cnc2c1)N1CCC[C@@H]2c3ccccc3CC[C@@H]21` (relative stereo) [Example 1, (1H-Benzoimidazol-5-yl)-(cis-2,3,4a,5,6,10b-hexahydro-1H-benzo[f]quinolin-4-yl)-methanone], the “Stability in human liver microsomes, t1/2” value is over 1.5 h.

On to `O=C(c1ccc2[nH]cnc2c1)N1CCC[C@@H]2c3ccccc3CC[C@@H]21` [Example 2, (1H-Benzoimidazol-5-yl)-[(4a-S,10b-R)-2,3,4a,5,6,10b-hexahydro-1H-benzo[l]quinolin-4-yl]-methanone], for which the “Stability in human liver microsomes, t1/2” value was 0.483 h.

Staying with this data set, now noted: human, pooled liver microsomes, pH 7.6, human liver microsomes, 37° C., test compound 1 μM, microsomal protein 0.5 mg/mL, NADPH 1 mM; read-out: Stability in human liver microsomes, t1/2.
Consider `O=C(c1ccc2[nH]cnc2c1)N1CCC[C@@H]2c3cc(F)cc(F)c3CC[C@@H]21` (relative stereo) [Example 20, (1H-Benzoimidazol-5-yl)-(cis-7,9-difluoro-2,3,4a,5,6,10b-hexahydro-1H-benzo[f]quinolin-4-yl)-methanone], for which the half-life at 1 μM is over 1.5 h.

In the case of `C[C@]12CCCN(C(=O)c3ccc4[nH]cnc4c3)[C@@H]1CCc1ccccc12` (relative stereo) [Example 11, (1H-Benzoimidazol-5-yl)-(trans-10b-methyl-2,3,4a,5,6,10b-hexahydro-1H-benzo[t]quinolin-4-yl)-methanone], the half-life at 1 μM was 0.633 h.

Take `N#Cc1ccc2c(c1)[C@H]1CCCN(C(=O)c3ccc4[nH]cnc4c3)[C@H]1C2` (relative stereo) [Example 106, cis-1-(1H-Benzoimidazole-5-carbonyl)-2,3,4,4a,9,9a-hexahydro-1H-indeno[2,1-b]pyridine-6-carbonitrile]: the half-life at 1 μM was over 1.5 h.

Consider `N#Cc1ccc2c(c1)C[C@H]1[C@@H]2CCCN1C(=O)c1ccc2[nH]cnc2c1` [Example 148, (4a-R,9a-S)-1-(1H-Benzoimidazole-5-carbonyl)-2,3,4,4a,9,9a-hexahydro-1H-indeno[2,1-b]pyridine-7-carbonitrile], for which the half-life at 1 μM was over 1.5 h.

For the compound `CC[C@]12CCCN(C(=O)c3ccc4[nH]cnc4c3)[C@@H]1CCc1ccccc12` (relative stereo) [Example 105, (1H-Benzoimidazol-5-yl)-(trans-10b-ethyl-2,3,4a,5,6,10b-hexahydro-1H-benzo[f]quinolin-4-yl)-methanone], the half-life at 1 μM worked out at 0.367 h.

For the compound `C[C@]12CCCN(C(=O)c3ccc4[nH]cnc4c3)[C@H]1CCc1ccccc12` (relative stereo) [Example 10, (1H-Benzoimidazol-5-yl)-(cis-10b-methyl-2,3,4a,5,6,10b-hexahydro-1H-benzo[f]quinolin-4-yl)-methanone], the half-life at 1 μM is over 0.75 h.

For `N#Cc1ccc2c(c1)[C@H]1CCCN(C(=O)c3ccc4[nH]cnc4c3)[C@H]1CC2` (relative stereo) [Example 91, cis-4-(1H-Benzoimidazole-5-carbonyl)-1,2,3,4,4a,5,6,10b-octahydro-benzo[f]quinoline-9-carbonitrile], the half-life at 1 μM is over 1.5 h.

Turning to `Cc1cc(C(=O)N2CCC[C@@H]3c4cc(C#N)ccc4C[C@@H]32)cc2nc[nH]c12` [Example 152, (4a-R,9a-S)-1-(7-Methyl-1H-benzoimidazole-5-carbonyl)-2,3,4,4a,9,9a-hexahydro-1H-indeno[2,1-b]pyridine-6-carbonitrile], the half-life at 1 μM was over 1.5 h.

As for `N#Cc1ccc2c(c1)CC[C@H]1[C@@H]2CCCN1C(=O)c1ccc2[nH]cnc2c1` (relative stereo) [Example 42, cis-4-(1H-Benzoimidazole-5-carbonyl)-1,2,3,4,4a,5,6,10b-octahydro-benzo[f]quinoline-8-carbonitrile], the half-life at 1 μM was over 1.5 h.

In the case of `Cc1cc2[nH]cnc2cc1C(=O)N1CCC[C@@H]2c3cc(C#N)ccc3C[C@@H]21` [Example 153, (4a-R,9a-S)-1-(6-Methyl-1H-benzoimidazole-5-carbonyl)-2,3,4,4a,9,9a-hexahydro-1H-indeno[2,1-b]pyridine-6-carbonitrile], the half-life at 1 μM is over 1.5 h.

`C#Cc1ccc2c(c1)[C@H]1CCCN(C(=O)c3ccc4[nH]cnc4c3)[C@H]1C2` (relative stereo) [Example 155, (1H-Benzoimidazol-5-yl)-(cis-6-ethynyl-2,3,4,4a,9,9a-hexahydro-indeno[2,1-b]pyridin-1-yl)-methanone]: the half-life at 1 μM worked out at 0.467 h.

On to `N#Cc1ccc2c(c1)[C@@H]1CCCN(C(=O)c3ccc4[nH]cnc4c3)[C@@H]1C2` [Example 108, (4a-S,9a-R)-1-(1H-Benzoimidazole-5-carbonyl)-2,3,4,4a,9,9a-hexahydro-1H-indeno[2,1-b]pyridine-6-carbonitrile], for which the half-life at 1 μM was over 1.5 h.

On to `C[C@H]1CCN(C(=O)c2ccc3[nH]cnc3c2)[C@H]2Cc3ccccc3[C@@H]12` [Example 146, (1H-Benzoimidazol-5-yl)-(cis-4-methyl-2,3,4,4a,9,9a-hexahydro-indeno[2,1-b]pyridin-1-yl)-methanone], for which the half-life at 1 μM was over 0.75 h.

Consider `N#Cc1ccc2c(c1)[C@H]1CCCN(C(=O)c3ccc4[nH]cnc4c3)[C@H]1C2` [Example 107, (4a-R,9a-S)-1-(1H-Benzoimidazole-5-carbonyl)-2,3,4,4a,9,9a-hexahydro-1H-indeno[2,1-b]pyridine-6-carbonitrile], for which the half-life at 1 μM is over 1.5 h.

In the case of `O=C(c1ccc2[nH]cnc2c1)N1CCC[C@@H]2c3ccccc3C[C@@H]21` (relative stereo) [Example 93, (1H-Benzoimidazol-5-yl)-(cis-2,3,4,4a,9,9a-hexahydro-indeno[2,1-b]pyridin-1-yl)-methanone], the half-life at 1 μM was over 1.5 h.

Turning to `NC(=O)c1ccc2c(c1)CC[C@H]1[C@@H]2CCCN1C(=O)c1ccc2[nH]cnc2c1` (relative stereo) [Example 37, cis-4-(1H-Benzoimidazole-5-carbonyl)-1,2,3,4,4a,5,6,10b-octahydro-benzo[f]quinoline-8-carboxylic acid amide], the half-life at 1 μM was over 1.5 h.
